In ChEMBL document CHEMBL5380870, “Halo Library, a Tool for Rapid Identification of Ligand Binding Sites on Proteins Using Crystallographic Fragment Screening” (J Med Chem, 2023) one finds inhibition and IC50 data, which are given here for 11 compounds.

In assay [1] the test system is Human immunodeficiency virus type 1 reverse transcriptase (Human immunodeficiency virus 1), Q72547 [UNDEFINED MUTATION]. The conditions noted are these: time 140.0 min, at 5 mM.
The target in assay [2] is Human immunodeficiency virus type 1 reverse transcriptase (Human immunodeficiency virus 1, UniProt Q72547). Briefly: Inhibition of HIV-1 reverse transcriptase RT52A mutant using ABTS as substrate preincubated with compound for 1 hr followed by template-primer addition for 1 hr and measured 20 mins after substrate addition by absorbance based Roche colorimetric assay.

`Nc1ccncc1Br` showed an inhibition in assay [1] of 99%. The concentration for half-maximal inhibition (IC50) in assay [2] came to 2100 µM.
In the same order, the values of `NCCc1c(F)cccc1Cl` are 99% and 2100 µM.
The compound `Brc1cn[nH]c1` gave an inhibition in assay [1] of 22%.
Still for that read-out and setting: with `CNc1ccc(C(F)(F)F)cc1N` the figure was 35%; with `Ic1cn[nH]c1`, 24%.
In turn, `O=C(O)c1cc2cc(F)ccc2[nH]1` [5-FLUOROINDOLE-2-CARBOXYLIC ACID] yielded an inhibition in assay [1] of 99%. In addition, the 50% inhibitory concentration (IC50) in assay [2] is 2900 µM.
`O=c1[nH]cnc2cccc(F)c12` returned an inhibition in assay [1] of 55%.
Regarding `Oc1ccc(C(F)(F)F)cn1`, the inhibition in assay [1] amounted to 35%.
On the same count and under the same terms, the value for `N#Cc1c(N)cccc1F` was 75%.
Still for that read-out and setting: with `NCc1cccc(Br)c1` the figure was 96%.
As for `Cc1c(CO)cnn1-c1ccc(F)cc1`, the inhibition in assay [1] amounted to 55%.

Broadly, the inhibition is the percentage by which the read-out fell short of the control. The low end stands for a weak effect, the high end for a strong effect. By IC50 is commonly meant the midpoint of a concentration-inhibition curve.
